The results in this text go back to patent publication US20080064679A1, “Water Soluble Cannabinoids” (priority 2004, published 2008).

A word on the Ki: it is a measure of affinity in units of concentration, obtained from inhibition or displacement.

Where “and” joins values, the source holds several entries; their conditions need not be identical. Equal values may be shown once. Entries after “also recorded” stand apart in the source; their conditions may differ. Read-outs that look alike come from different tables or passages of the source.

Series [1] concerns the target T1, human CB1 receptor (Homo sapiens, UniProt P21554).
T1 construct: expressed in transfected cells; b94 says CHO for CB1
As to the kind of experiment: CB1 receptor binding, [3H]CP55,940 displacement in membranes of transfected cells. How it is done:
For the in vivo studies, the drugs were dissolved in either saline or emulphor:ethanol:saline (E:E:S) as indicated.
cLogP calculations. Absolute solubility determinations were not performed. Rather, cLogP calculations were performed using the CS ChemDraw Ultra software (Cambridge Soft Corporation, Cambridge, Mass.). Receptor Binding. HEK-293 cells stably expressing the human CB1 receptor were cultured in DMEM with 10% FBS and Chinese Hamster Ovary (CHO) cells stably expressing the human CB2 receptor were cultured in DMEM with 10% FCS. Cells were harvested by replacement of the media with cold phosphate-buffered saline containing 1 mM EDTA followed by centrifugation at 1000×g for 5 min at 4° C. The pellet was resuspended in 50 mM Tris-HCl containing 320 mM sucrose, 2 mM EDTA and 5 mM MgCl2 (pH 7.4) (centrifugation buffer), then centrifuged at 1000×g for 10 min at 4° C., and the resulting supernatant was saved. This process was repeated twice. The supernatant fractions were combined and centrifuged at 40,000×g for 30 min at 4° C. The resulting P2 pellet was resuspended in assay buffer (50 mM Tris-HCl (pH 7.4), 3 mM MgCl2, 0.2 mM EGTA, and 100 mM NaCl) and protein was determined by the method of Bradford ENRfu(Bradford 1976). Membranes were stored at −80° C. until use. […] The assay was incubated at 30° C. for 1 hr and terminated by addition of ice cold 50 mM Tris-HCl plus BSA (1 mg/ml) (pH 7.4) followed by filtration under vacuum through Whatman GF/B glass fiber filters with 3 washes with cold Tris buffer. Bound radioactivity was determined by liquid scintillation spectrophotometry at 50% efficiency after extraction by shaking samples for 30-60 min with Budget-Solve scintillation fluid. Data are reported as the mean±SEM of three experiments, each performed in triplicate. Ki values were calculated from displacement data using EBDA (Equilibrium Binding Data Analysis; BIOSOFT, Milltown, N.J.). [^35S]GTPγS Binding Assays. Concentration-effect curves were generated by incubating membranes (10 μg prepared from CB1 expressing cells as described above) in assay buffer containing BSA (1 mg/ml) with various concentrations of test compounds in the presence of 20 μM GDP and 0.1 nM [^35S]GTPγS in a 1 ml total volume. […] Basal binding was assessed in the absence of agonist, and nonspecific binding was measured in the presence of 10 μM GTPγS. The reaction was incubated for 90 min at 30° C. and terminated by filtration under vacuum through Whatman GF/B glass fiber filters with 3 washes with cold (4° C.) Tris buffer (50 mM Tris-HCl, pH 7.4). Bound radioactivity was determined by liquid scintillation spectrophotometry at 95% efficiency after extraction overnight in ScintiSafe Econo 1 scintillation fluid. Data are reported as mean±SEM of three experiments, each performed in triplicate. Nonlinear regression analysis was conducted by iterative fitting using JMP (SAS for Macintosh). Net-stimulated [^35S]GTPγS binding is defined as [^35S]GTPγS binding in the presence of drug minus basal and percent stimulation is expressed as (net stimulated [^35S]GTPγS binding/basal)×100%. Behavioral Evaluations. All animals were allowed to acclimate to the observation room overnight. Behavioral effects were assessed in the tetrad model in order to measure potency in producing antinociception, catalepsy, hypothermia, and hypomobility. The baselines for tail-flick latency (2-4 seconds) and rectal temperature were determined prior to i.v. injections. Baseline rectal temperatures were measured using a telethermometer and a thermometer probe inserted to 25 mm (Yellow Springs Instrument Co., Yellow Springs, Ohio). The mice were then given either an i.v. i.c.v. injection of the analog. The mice were placed in individual photocell activity chambers 5 min later. Spontaneous activity was monitored for 10 min in a Digiscan Animal Activity Monitor (Omnitech Electronice, Inc., Columbus, Ohio) as measured by the number of interruptions of 16 photocell beams per chamber.

Series [2] deals with mice. As to the kind of experiment: Tetrad model, all four behavioral measures together (time course, oral and i.c.v. administration). The class given is in vivo, mouse. As to conditions: for In vivo potency relative to Δ^9-THC (times more potent): i.v., 1:1:18 vehicle; for Potency following oral administration (four tests) / Time course of effects following oral administration: 10 mg/kg; for Potency following oral administration (four tests): 30 minutes before the start of testing; for Time course of effects following oral administration: different time points before testing.

The nature of series [3]: Stability in buffer, plasma and microsomal enzymes.
The mark [4] stands for this setting: Tables 2b, 3b, 4a, mean±SEM, read-out: CB1 Ki.

T1 sequence (P21554 whole entry): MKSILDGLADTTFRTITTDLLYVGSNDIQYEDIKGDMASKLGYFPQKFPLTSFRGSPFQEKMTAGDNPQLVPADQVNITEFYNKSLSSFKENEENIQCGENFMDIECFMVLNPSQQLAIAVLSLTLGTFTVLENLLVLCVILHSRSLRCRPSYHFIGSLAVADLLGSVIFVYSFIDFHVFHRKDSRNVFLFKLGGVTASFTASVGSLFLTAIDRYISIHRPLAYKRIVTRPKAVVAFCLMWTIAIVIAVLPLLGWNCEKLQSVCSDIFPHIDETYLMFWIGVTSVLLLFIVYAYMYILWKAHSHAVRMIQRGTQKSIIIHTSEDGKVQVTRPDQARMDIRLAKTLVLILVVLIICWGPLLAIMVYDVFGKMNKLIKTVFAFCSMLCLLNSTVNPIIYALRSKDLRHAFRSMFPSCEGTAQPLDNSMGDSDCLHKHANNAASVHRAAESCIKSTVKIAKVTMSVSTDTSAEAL

“1-(2-methyl-4-N-piperidinobutyryloxy) [O-2374]”: in series [1] (setting [4]), the Ki was 4.62 ± 2.2 nM. `CC1=CC[C@@H]2[C@@H](C1)c1c(O)cc(C(C)(C)CCCCC(N)=O)cc1OC2(C)C` [O-2352, Carboxamido]: in series [2] (mice), the “In vivo potency relative to Δ^9-THC (times more potent)” value is on record as “slightly more potent than Δ^9-THC”. For the same compound, the Ki in series [1] (CB1 Ki) stood at 13.1 ± 0.61 nM.

In turn, `CC1=CC[C@@H]2[C@@H](C1)c1c(O)cc(C(C)(C)CCCCC(=O)N3CCOCC3)cc1OC2(C)C` [O-2372, Morpholino-carboxamido] showed an inhibition constant (Ki) in series [1] (CB1 Ki) of 1.3 ± 0.12 nM. `CC1=CC[C@@H]2[C@@H](C1)c1c(O)cc(C(C)(C)CCCCC(=O)N3CCCCC3)cc1OC2(C)C` [O-2373, Piperidino-carboxamido]: the affinity in series [1] (CB1 Ki), expressed as Ki, was 0.96 ± 0.11 nM. Take `CC1=CC[C@@H]2[C@@H](C1)c1c(O)cc(C(C)(C)CCCCC(=O)N3CCN(C)CC3)cc1OC2(C)C` [O-2381, Methylepiperazino-carboxamido]: the “Decrease of CB1 receptor affinity and pharmacological potency, piperidine to piperazine” value in series [1] is recorded as “more than a hundred fold”. The inhibitory constant (Ki) in series [1] (CB1 Ki) was 112 ± 14 nM. As to `CC1=CC[C@@H]2[C@@H](C1)c1c(O)cc(C(C)(C)CCCCC(=O)N3CCCC3)cc1OC2(C)C` [O-2399, Pyrrolidino-carboxamido], the Ki in series [1] (CB1 Ki) amounted to 2.85 ± 0.52 nM.

On to `CC1=CC[C@@H]2[C@@H](C1)c1c(O)cc(C(C)(C)CCCCC(=O)N3CCCCCC3)cc1OC2(C)C` [O-2421, Homopiperidino-carboxamido], for which, in series [1] (CB1 Ki), the Ki worked out at 4.24 ± 1.01 nM.

In the case of `CC1=CC[C@@H]2[C@@H](C1)c1c(O)cc(C(C)(C)CCCCC(=O)NN3CCCCCC3)cc1OC2(C)C` [O-2489, N-(Homo-piperidin-1-yl)-carboxamido], the inhibition constant (Ki) in series [1] (CB1 Ki) was 15.8 ± 0.44 nM. Turning to `CNC(=O)CCCCC(C)(C)c1cc(O)c2c(c1)OC(C)(C)[C@@H]1CC=C(C)C[C@@H]21` [O-2490, N-(Methyl)carboxamido], the “Maximal effects in hypothermia and catalepsy assays” value in series [2] (dose 1 mg/kg that produced maximal effects in the other two measures) was “failed to produce maximal effects in hypothermia and catalepsy assays”. The same compound registered a Ki in series [1] (CB1 Ki) of 18.7 ± 0.58 nM. `CC1=CC[C@@H]2[C@@H](C1)c1c(O)cc(C(C)(C)CCCCC(=O)NN3CCCC3)cc1OC2(C)C` [O-2543, N-(Pyrrolidin-yl)-carboxamido]: the affinity in series [1] (CB1 Ki) corresponds to a Ki of 23.3 ± 3.4 nM. As for `CC1=CC[C@@H]2[C@@H](C1)c1c(O)cc(C(C)(C)CCCCC(=O)NN3CCOCC3)cc1OC2(C)C` [O-2544, N-(Morpholin-1-yl)-carboxamido], in series [1] (CB1 Ki), the Ki is 5.97 ± 0.65 nM. As to `CC1=CC[C@@H]2[C@@H](C1)c1c(O)cc(C(C)(C)CCCCn3ccnc3)cc1OC2(C)C` [O-2545, Imidazol-1-yl], the “Stability in buffer, plasma and microsomal enzymes” value in series [3] was “excellent stability in buffer and plasma and microsomal enzymes”. Further, the “Time course of effects after i.v. administration” value in series [2] (FIG. 10, 0.24 μmoles/kg i.v., saline) is recorded as “At 1 hr all effects, except ring immobility, are present but only antinociception is present at 2 hours”. Further, the “Activity in the behavioral tests after i.c.v. injection” value in series [2] (i.c.v., analogs dissolved in water, THC in emulphor:ethanol:saline, Table 5 not given) is on record as “the most potent”. Also, the “In vivo potency relative to Δ^9-THC (times more potent)” value in series [2] (mice) is listed as “at least 40 fold”. In series [2], the “Potency following oral administration (four tests)” value was “fully effective in producing antinociception, hypothermia and ring immobility but was only a partial agonist in producing sedation”; the “Time course of effects following oral administration” value is recorded as “By four hrs the effects had largely dissipated; also recorded: produce the full range of effects up to 2 hours”. The Ki in series [1] (CB1 Ki) is 1.34 nM and 1.47 nM.

Take `CC1=CC[C@@H]2[C@@H](C1)c1c(O)cc(C(C)(C)CCCCn3ccnc3C)cc1OC2(C)C` [O-2651, 2-Methyl-imidazol-1-y1]: the “In vivo potency, fold less potent than the hydrochloride salt of O-2545” value in series [2] (mice, administered in saline) is “at least 10 fold”. In series [1] (CB1 Ki), the affinity corresponds to a Ki of 13.9 ± 0.83 nM. Turning to `CC1=CC[C@@H]2C(C1)c1c(OC(=O)CCCN(C(C)C)C(C)C)cc(C(C)(C)CCCCC(=O)N3CCOCC3)cc1OC2(C)C` (some centres unmarked) [O-2694, Diisopropylaminobutyrate of Δ^8-THC-3-(1,1-dimethyl-6-morpholin-4-yl-6-oxo-hexyl)], in series [1] (setting [4]), the inhibition constant (Ki) came out at 3.7 ± 0.43 nM. Take `CC1=CC[C@@H]2[C@@H](C1)c1c(O)cc(C(C)(C)CCCCn3cccn3)cc1OC2(C)C` [O-2715, Pyrazol-1-yl]: the “Time course of effects after i.v. administration” value in series [2] (FIG. 12, 0.3 mg/kg (0.74 μmoles/kg) i.v., vehicle 1:1:18) was “duration of antinociception and hypothermia exceeded that of sedation and relative immobility”. In series [2], the “Potency following oral administration (four tests)” value was “active in all tests” and the “Time course of effects following oral administration” value is “negligible effects at one hr; also recorded: effects that lasted only 1 hour”. In addition, in series [1] (CB1 Ki), the affinity corresponds to a Ki of 1.94 ± 0.29 nM.

`CC1=CC[C@@H]2[C@@H](C1)c1c(O)cc(C(C)(C)CCCCn3cncn3)cc1OC2(C)C` [O-2716, 1,2,4-Triazol-1-yl]: the “Time course of effects after i.v. administration” value in series [2] (FIG. 11, 0.1 mg/kg (0.24 μmoles/kg) i.v., vehicle 1:1:18) was “relatively short acting with most of the effects gone by 1 hour and no separation of effects”. Moreover, the “Time course of effects following oral administration” value in series [2] was “Maximal effects were observed at 30 min and only a slight decrease in activity was observed at 2 hrs; also recorded: effects lasted at least 2 hours”. This compound gave a Ki in series [1] (CB1 Ki) of 3.43 ± 0.16 nM. On to `CC1=CC[C@@H]2[C@@H](C1)c1c(O)cc(C(C)(C)CCCCc3ncc[nH]3)cc1OC2(C)C` [O-2737, 1H-Imidazol-2-yl], for which the Ki in series [1] (CB1 Ki) is 54 nM and 54.9 nM.
